Entries after “also recorded” stand apart in the source; their conditions may differ.
What was measured:
[1] = tested on: HSP105, HSP70, pHER2, total HER2 and EGR4-S expression; experiment: Western blot after treatment with cell stress activating compounds (FIG. 4E); format: cell-based
Protocol: The MCF10A cell line was obtained from the A.T.C.C. (Manassas, VA, U.S.A.) and cultured as described previously (Debnath et al., 2003). T47D cells, SkBr3 cells, Hs578T and HEK-293T cells were cultured as described by Nguyen et al (2013). MDA-361, ZR75-1, BT-474, MDA-453, MDA-468, MDA-231, BT549 and MCF7 cells were cultured in Dulbecco's Modified Eagle's medium supplemented with 10% (v/v) fetal bovine serum and 1% (w/v) penicillin/streptomycin. In addition, MCF7 growth media was supplemented with 10 ng/ml insulin. All stable cell lines were generated by retroviral or lentiviral transduction as per Debnath et al. (2003). Viral stocks were generated by transient transfection of appropriate viral packaging vectors into the HEK-293T cell line as described by Lang and colleagues (2012). Drugs/compounds used for treating the cells were purchased from commercial sources, including Lapatinib, Erlotinib, Gefinitib and AUY922 from Sigma, and Sulfurophane from Santa Cruz Biotechnology. HSF1-targeted shRNAmir (microRNA-adapted short hairpin RNA) vectors were constructed as described previously (Lang et al., 2012). EGR4-targeted shRNAmir were purchased from Millenium Science.
(§1) Generation of protein lysates from cells was performed according to a previously published protocol (Price et al., 2005). Equal concentrations of protein lysates were combined with loading buffer (Invitrogen) and sample reducing agent (Invitrogen), denatured for 5 minutes at 95° C. then separated through gel electrophoresis in a 4-to-12% Bis-Tris NuPAGE gel (Invitrogen) with 1×MES buffer (Invitrogen) and antioxidant (Invitrogen). Following separation, the proteins were electrophoretically transferred onto nitrocellulose membranes using the iBlot western detection stack/iBlot dry blotting system (Thermofisher) for seven minutes at 23V. All membranes were then processed at room temperature overnight using the […] (Thermofisher) containing primary antibodies, iBind wash solution and horseradish peroxidase-conjugated secondary antibodies. Blots were developed using Clarity Western ECL (Bio-RAD), and images were captured using a Fusion FX imaging machine (Vilber). All antibodies were purchased from commercial sources and included, anti-HSF1 (catalogue number SPA-901), anti-HSP27 (catalogue number SPA-800) and anti-HSP90a (catalogue number SPA-835) antibodies from Enzo Life Sciences; anti-HSP105/110 (catalogue number Sc-6241) antibody from Santa Cruz Biotechnology; anti-Ha-Ras (catalogue number 05-775) antibody from Merck Millipore; anti-actin (catalogue number MS-1295-P0) and anti-HSP70i (catalogue number MS-482-P0) antibodies from Thermo Scientific; anti-p53 (catalogue number 51-9002046) from BD Pharmingen; anti-pHER2/ErbB2 (catalogue number Ab53290), anti-pAkt (catalogue number MISCGENLAB), anti-pEGFR catalogue number SCZSC-12351), anti-total EGFR catalogue number SCZSC-120) from Abcam, anti-total Akt (catalogue number 9272) and anti-HER2/ErbB2 (catalogue number Ab134182) from Cell Signalling, anti-EGR4 (catalogue number AV38090) (Sigma), anti-EGR4 (catalogue number PA5-50496) (Thermofisher), and anti-EGR4 (catalogue number SC133540) (Santa Cruz).

[2] = tested on: HER signalling pathway (pHER2, pAKT, EGR4-S) in HER2+ breast cancer cells; conditions: for EGR4-S expression: increasing drug concentrations, FIG. 3
Protocol: Generation of protein lysates from cells was performed according to a previously published protocol (Price et al., 2005). Equal concentrations of protein lysates were combined with loading buffer (Invitrogen) and sample reducing agent (Invitrogen), denatured for 5 minutes at 95° C. then separated through gel electrophoresis in a 4-to-12% Bis-Tris NuPAGE gel (Invitrogen) with 1×MES buffer (Invitrogen) and antioxidant (Invitrogen). Following separation, the proteins were electrophoretically transferred onto nitrocellulose membranes using the iBlot western detection stack/iBlot dry blotting system (Thermofisher) for seven minutes at 23V. All membranes were then processed at room temperature overnight using the iBlot Western system (Thermofisher) containing primary antibodies, iBind wash solution and horseradish peroxidase-conjugated secondary antibodies. Blots were developed using Clarity Western ECL (Bio-RAD), and images were captured using a Fusion FX imaging machine (Vilber).
The effect of modulators that target the HER signalling pathway (TKIs such as Lapatinib, Gefitinib and Erlotinib) on EGR4-S expression was examined.

[3] = tested on: EGR4-S in HER2+ breast cancer cells (SKBR3); experiment: EGR4-S expression in cells cultured in increasing Lapatinib concentrations over 7 weeks (FIG. 12); format: cell-based
Protocol: as §1
The cell line was cultured in increasing concentrations of Lapatinib over the course of seven weeks to investigate whether EGR4-S expression would be affected during prolonged treatment with Lapatinib.

EGR4-S in HER2+ cells = experiment: Lapatinib treatment of HER2+ cells with elevated or lowered HSF1 (FIG. 15A/B); format: cell-based
Protocol: as §1

## CCNC(=O)c1noc(-c2cc(C(C)C)c(O)cc2O)c1-c1ccc(CN2CCOCC2)cc1 [AUY922]
[1]; higher concentrations
  EGR4-S expression: decreased; also recorded: reducing EGR4-S expression
  HSP105 expression: increased
  pHER2 expression: decreased
  total HER2 expression: decreased

## COc1cc2ncnc(Nc3ccc(F)c(Cl)c3)c2cc1OCCCN1CCOCC1 [Gefitinib]
[2]
  EGR4-S expression: regulated

## C[S+]([O-])CCCCN=C=S (stereo not shown) [Sulfurophane, Sulforaphane]
[1]; greater treatment concentrations
  HSP70 expression: increased
[1]; higher concentrations
  EGR4-S expression: reductions
  pHER2 expression: reductions
[1]; higher concentrations, listed as Sulforaphane
  EGR4-S expression: reducing EGR4-S expression

## CS(=O)(=O)CCNCc1ccc(-c2ccc3ncnc(Nc4ccc(OCc5cccc(F)c5)c(Cl)c4)c3c2)o1 [Lapatinib]
[3]; SKBR3, week 5, 300 nM Lapatinib, vs control
  EGR4-S expression: less EGR4-S compared to the control
[3]; SKBR3, week 7, 600 nM Lapatinib
  EGR4-S expression: returning to control levels
[3]; after 3 weeks of treatment, vs untreated control
  EGR4-S expression: reduced levels of EGR4-S
[3]; prolonged treatment, vs untreated control cells
  EGR4-S expression: unchanged
EGR4-S in HER2+ cells; HER2+ cells, dose-dependent, FIG. 15A
  EGR4-S expression: reduced EGR4-S expression in a dose-dependent manner
EGR4-S in HER2+ cells; HSF1 levels lowered, equivalent doses, FIG. 15B
  response of EGR4-S expression: did not respond as readily
EGR4-S in HER2+ cells; with elevated HSF1, FIG. 15A
  reduction of EGR4-S expression: more pronounced
[2]; different types of HER2+ breast cancer cells, FIG. 3B
  EGR4-S expression over time: maintained over time
[2]
  EGR4-S expression: regulated

## C#Cc1cccc(Nc2ncnc3cc(OCCOC)c(OCCOC)cc23)c1 [Erlotinib]
[2]
  EGR4-S expression: regulated

Reference: patent US20230348987A1, “METHODS AND COMPOSITIONS FOR TREATING CANCER” (PROMETTRE RESEARCH PTY LTD, priority 2020, published 2023)
